According to ChEMBL document CHEMBL4680217, “Discovery of PROTAC BCL-X degraders as potent anticancer agents with low on-target platelet toxicity” (Eur J Med Chem, 2020):
Values belong to the molecule of their own block, whether it stands above or below them. Calls of active or inactive are those of the source. The calls are words filed in the database; no cut-off is given here.

Tests used:
MOLT-4 [1] = test: Potency index, ratio of ABT-263 IC50 to test compound IC50 for antiproliferative activity against human MOLT-4 cells assessed as reduction in cell viability measured after 48 hrs by MTS assay; assay type: functional
MOLT-4 [2] = test: Induction of apoptosis in human MOLT-4 cells assessed as necrotic cells at 100 nM measured after 48 hrs in presence of pan-caspase inhibitor QVD by Alexa Fluor 647-Annexin V/propidium iodide staining based flow cytometry (reference value: 0.3 to 0.4%); assay type: functional
MOLT-4 [3] = test: Induction of apoptosis in human MOLT-4 cells assessed as viable cells at 100 nM measured after 48 hrs by Alexa Fluor 647-Annexin V/propidium iodide staining based flow cytometry (reference value: 97.1 to 97.3%); assay type: functional; conditions: read-out: Activity
[4] = molecular target: T1, Protein cereblon/Zinc finger protein Aiolos (Homo sapiens) (UniProt Q96SW2+Q9UKT9); test: Protac activity at CRBN/IKZF3 in human MOLT-4 cells assessed as induction of IKZF3 degradation at 10 nM measured after 16 hrs by immunoblotting analysis; assay type: cell-based
[5] = molecular target: T2, Protein cereblon/Bcl-2-like protein 1 (Homo sapiens, UniProt Q07817+Q96SW2); test: Protac activity at CRBN/BCL-XL in human MOLT-4 cells assessed as induction of BCL-XL degradation at 100 nM measured within 2 hrs by immunoblotting analysis; assay type: cell-based
MOLT-4 [6] = test: Induction of apoptosis in human MOLT-4 cells assessed as early apoptotic cells at 100 nM measured after 48 hrs by Alexa Fluor 647-Annexin V/propidium iodide staining based flow cytometry (reference value: 1.5 to 1.7%); assay type: functional
[7] = molecular target: Protein cereblon/Apoptosis regulator Bcl-2 (Homo sapiens) (UniProt P10415+Q96SW2); test: Protac activity at CRBN/BCL2 in human MOLT-4 cells assessed as induction of BCL2 degradation at 50 nM measured after 16 hrs by immunoblotting analysis; assay type: cell-based
MOLT-4 [8] = test: Induction of apoptosis in human MOLT-4 cells assessed as viable cells at 100 nM measured after 48 hrs in presence of pan-caspase inhibitor QVD by Alexa Fluor 647-Annexin V/propidium iodide staining based flow cytometry (reference value: 97.1 to 97.3%); assay type: functional; conditions: read-out: Activity
MOLT-4 [9] = test: Induction of apoptosis in human MOLT-4 cells assessed as necrotic cells at 100 nM measured after 48 hrs by Alexa Fluor 647-Annexin V/propidium iodide staining based flow cytometry (reference value: 0.3 to 0.4%); assay type: functional
[10] = Ratio of IC50 for human MOLT-4 cells in presence of pomalidomide to IC50 for human MOLT-4 cells; assay type: functional
[11] = Selectivity index, ratio of IC50 for human platelet to IC50 for human MOLT-4 cells
[12] = molecular target: T3, Cereblon/Ikaros (Homo sapiens) (UniProt Q96SW2+Q13422); test: Protac activity at CRBN/IKZF1 in human MOLT-4 cells assessed as induction of IKZF1 degradation at 10 nM measured after 16 hrs by immunoblotting analysis; assay type: cell-based
NCI-H146 = test: Antiproliferative activity against human NCI-H146 cells assessed as reduction in cell viability measured after 48 hrs by MTS assay; assay type: functional, cell-based; conditions: NCI-H146, 48 h
MOLT-4 [13] = test: Induction of apoptosis in human MOLT-4 cells assessed as early apoptotic cells at 10 nM measured after 48 hrs by Alexa Fluor 647-Annexin V/propidium iodide staining based flow cytometry (reference value: 1.5 to 1.7%); assay type: functional
[14] = molecular target: T1, Protein cereblon/Zinc finger protein Aiolos (Homo sapiens); test: Protac activity at CRBN/IKZF3 in human MOLT-4 cells assessed as induction of IKZF3 degradation at 100 nM measured after 16 hrs by immunoblotting analysis; assay type: cell-based
[15] = molecular target: T2, Protein cereblon/Bcl-2-like protein 1; test: Protac activity at CRBN/BCL-XL in human MOLT-4 cells assessed as induction of BCL-XL degradation at 100 nM preincubated for 16 hrs followed by compound washout by immunoblotting analysis; assay type: cell-based
MOLT-4 [16] = test: Induction of apoptosis in human MOLT-4 cells assessed as late apoptotic cells at 10 nM measured after 48 hrs by Alexa Fluor 647-Annexin V/propidium iodide staining based flow cytometry (reference value: 1.1 to 1.4%); assay type: functional
[17] = molecular target: T2, Protein cereblon/Bcl-2-like protein 1; test: Protac activity at CRBN/BCL-XL in human MOLT-4 cells assessed as induction of BCL-XL degradation at 3.7 to 300 nM measured after 16 hrs in presence of proteasome inhibitor MG-132 by immunoblotting analysis; assay type: cell-based; conditions: dose 3.7-300 nM
[18] = molecular target: T3, Cereblon/Ikaros (Homo sapiens); test: Protac activity at CRBN/IKZF1 in human MOLT-4 cells assessed as induction of IKZF1 degradation at 100 nM measured after 16 hrs by immunoblotting analysis; assay type: cell-based
MOLT-4 [19] = test: Induction of apoptosis in human MOLT-4 cells assessed as early apoptotic cells at 100 nM measured after 48 hrs in presence of pan-caspase inhibitor QVD by Alexa Fluor 647-Annexin V/propidium iodide staining based flow cytometry (reference value: 1.5 to 1.7%); assay type: functional
[20] = molecular target: T2, Protein cereblon/Bcl-2-like protein 1; test: Protac activity at CRBN/BCL-XL in human MOLT-4 cells assessed as induction of BCL-XL degradation at 100 nM measured after 8 hrs by immunoblotting analysis relative to control; assay type: cell-based
RS4-11 = test: Antiproliferative activity against human RS4-11 cells assessed as reduction in cell viability measured after 48 hrs by MTS assay; assay type: functional, cell-based; conditions: RS4-11, 48 h
MOLT-4 [21] = test: Antiproliferative activity against human MOLT-4 cells assessed as reduction in cell viability measured after 48 hrs by MTS assay; assay type: functional, cell-based; conditions: MOLT-4, 48 h
MOLT-4 [22] = test: Induction of apoptosis in human MOLT-4 cells assessed as necrotic cells at 10 nM measured after 48 hrs by Alexa Fluor 647-Annexin V/propidium iodide staining based flow cytometry (reference value: 0.3 to 0.4%); assay type: functional
MOLT-4 [23] = test: Induction of apoptosis in human MOLT-4 cells assessed as late apoptotic cells at 100 nM measured after 48 hrs by Alexa Fluor 647-Annexin V/propidium iodide staining based flow cytometry (reference value: 1.1 to 1.4%); assay type: functional
MOLT-4 [24] = test: Induction of apoptosis in human MOLT-4 cells assessed as increase in cleaved caspase-3 expression measured after 16 hrs by immunoblotting analysis; assay type: functional, cell-based
[25] = molecular target: T2, Protein cereblon/Bcl-2-like protein 1; test: Protac activity at CRBN/BCL-XL in human MOLT-4 cells assessed as induction of BCL-XL degradation at 10 to 100 nM measured after 16 hrs in presence of competitive CRBN ligand pomalidomide by immunoblotting analysis; assay type: cell-based; conditions: dose 10-100 nM
MOLT-4 [26] = test: Induction of apoptosis in human MOLT-4 cells assessed as increase in cleaved PARP expression measured after 16 hrs by immunoblotting analysis; assay type: functional, cell-based
[27] = Toxicity in human platelet assessed as reduction in cell viability measured after 48 hrs by MTS assay; assay type: tissue-based; conditions: human platelets
[28] = molecular target: T2, Protein cereblon/Bcl-2-like protein 1; test: Protac activity at CRBN/BCL-XL in human MOLT-4 cells assessed as induction of BCL-XL degradation measured after 16 hrs by immunoblotting analysis; assay type: cell-based
[29] = molecular target: T2, Protein cereblon/Bcl-2-like protein 1; test: Protac activity at CRBN/BCL-XL in human MOLT-4 cells assessed as induction of BCL-XL degradation by measuring remaining BCL-XL level at 50 nM measured after 16 hrs by immunoblotting analysis relative to control; assay type: cell-based
MOLT-4 [30] = test: Induction of apoptosis in human MOLT-4 cells assessed as viable cells at 10 nM measured after 48 hrs by Alexa Fluor 647-Annexin V/propidium iodide staining based flow cytometry (reference value: 97.1 to 97.3%); assay type: functional; conditions: read-out: Activity
MOLT-4 [31] = test: Induction of apoptosis in human MOLT-4 cells assessed as late apoptotic cells at 100 nM measured after 48 hrs in presence of pan-caspase inhibitor QVD by Alexa Fluor 647-Annexin V/propidium iodide staining based flow cytometry (reference value: 1.1 to 1.4%); assay type: functional
[32] = molecular target: T2, Protein cereblon/Bcl-2-like protein 1; test: Protac activity at CRBN/BCL-XL in human platelet assessed as induction of BCL-XL degradation up to 1 uM measured after 16 hrs by immunoblotting analysis; conditions: dose microM <=1, time 16.0 hrs
[33] = molecular target: T4, von Hippel-Lindau disease tumor suppressor/Bcl-2-like protein 1 (Homo sapiens, UniProt Q07817+P40337); test: Protac activity at VHL/BCL-XL in human MOLT-4 cells assessed as induction of BCL-XL degradation measured after 16 hrs by immunoblotting analysis; assay type: cell-based
[34] = molecular target: von Hippel-Lindau disease tumor suppressor/Apoptosis regulator Bcl-2 (Homo sapiens) (UniProt P10415+P40337); test: Protac activity at VHL/BCL2 in human MOLT-4 cells assessed as induction of BCL2 degradation at 100 nM measured after 16 hrs by immunoblotting analysis; assay type: cell-based
[35] = molecular target: T4, von Hippel-Lindau disease tumor suppressor/Bcl-2-like protein 1; test: Protac activity at VHL/BCL-XL in human MOLT-4 cells assessed as induction of BCL-XL degradation by measuring remaining BCL-XL level at 100 nM measured after 16 hrs by immunoblotting analysis relative to control; assay type: cell-based

Activity [4]: inactive | Activity [5]: Active | Activity [7]: inactive | Activity [12]: inactive | IC50 (NCI-H146): 25.3 nM | Activity [14]: Active | Activity [15]: inactive | Activity [17]: inactive | Activity [18]: Active | Activity [20]: > 96% | IC50 (RS4-11): 41.8 nM | IC50 (MOLT-4 [21]): 10.1 nM | Activity [25]: inactive | Activity [28]: Dose-dependent effect | DC50 [28]: 2.5 nM | Activity [29]: 4% | Activity [32]: inactive
SMILES: CN(CCOCCOCCOCCNc1cccc2c1C(=O)N([C@@H]1CCC(=O)NC1=O)C2=O)CC[C@H](CSc1ccccc1)Nc1ccc(S(=O)(=O)NC(=O)c2ccc(N3CCN(CC4=C(c5ccc(Cl)cc5)CCC(C)(C)C4)CC3)cc2)cc1S(=O)(=O)C(F)(F)F
Ratio IC50 (MOLT-4 [1]): 22 | Activity (MOLT-4 [2]): 1.3% | viability at 0.1 µM (MOLT-4 [3]): 1.4% | Activity (MOLT-4 [6]): 45.5% | viability at 0.1 µM (MOLT-4 [8]): 23.1% | Activity (MOLT-4 [9]): 0.2% | Ratio IC50 [10]: 27 | Ratio IC50 [11]: 120 | Activity (MOLT-4 [13]): 58.1% | Activity (MOLT-4 [16]): 18.7% | Activity (MOLT-4 [19]): 18.7% | Activity (MOLT-4 [22]): 1% | Activity (MOLT-4 [23]): 52.7% | Activity (MOLT-4 [24]): Dose-dependent effect | Activity (MOLT-4 [26]): Dose-dependent effect | IC50 at 48 h [27]: 1220 nM | viability at 0.01 µM (MOLT-4 [30]): 21.9% | Activity (MOLT-4 [31]): 56.7%

Activity [7]: inactive | IC50 (NCI-H146): 24.6 nM | IC50 (RS4-11): 38.5 nM | IC50 (MOLT-4 [21]): 17.3 nM | DC50 [28]: 4.5 nM | Activity [29]: 5%
SMILES: CC1(C)CCC(c2ccc(Cl)cc2)=C(CN2CCN(c3ccc(C(=O)NS(=O)(=O)c4ccc(N[C@H](CCN5CCN(CCOCCOCCOCCNc6cccc7c6C(=O)N([C@@H]6CCC(=O)NC6=O)C7=O)CC5)CSc5ccccc5)c(S(=O)(=O)C(F)(F)F)c4)cc3)CC2)C1
Ratio IC50 (MOLT-4 [1]): 12 | Ratio IC50 [11]: 90 | IC50 at 48 h [27]: 1560 nM

DC50 [33]: 53 nM | IC50 (NCI-H146): 278 nM | Activity [34]: inactive | IC50 (RS4-11): 213 nM | IC50 (MOLT-4 [21]): 77.1 nM | Activity [35]: 14%
SMILES: Cc1ncsc1-c1ccc([C@H](C)NC(=O)[C@@H]2C[C@@H](O)CN2C(=O)[C@@H](NC(=O)CCCCCC(=O)N2CCN(CC[C@H](CSc3ccccc3)Nc3ccc(S(=O)(=O)NC(=O)c4ccc(N5CCN(CC6=C(c7ccc(Cl)cc7)CCC(C)(C)C6)CC5)cc4)cc3S(=O)(=O)C(F)(F)F)CC2)C(C)(C)C)cc1 [DT-2216]
Ratio IC50 [11]: >130 | IC50 at 48 h [27]: > 10000 nM

DC50 [33]: 71 nM | IC50 (NCI-H146): 265 nM | Activity [34]: inactive | IC50 (RS4-11): 189 nM | IC50 (MOLT-4 [21]): 81.3 nM | Activity [35]: 28%
SMILES: Cc1ncsc1-c1ccc([C@H](C)NC(=O)[C@@H]2C[C@@H](O)CN2C(=O)[C@@H](NC(=O)CCCCCCN(C)CC[C@H](CSc2ccccc2)Nc2ccc(S(=O)(=O)NC(=O)c3ccc(N4CCN(CC5=C(c6ccc(Cl)cc6)CCC(C)(C)C5)CC4)cc3)cc2S(=O)(=O)C(F)(F)F)C(C)(C)C)cc1
Ratio IC50 [11]: >123 | IC50 at 48 h [27]: > 10000 nM
